Columns and labels:
Assay type in all cases: tissue-based
[1] = biological target: Histamine H1 receptor (Cavia porcellus) (UniProt P31389); experiment: Inhibition of H1 receptor in Cavia porcellus Hartley (guinea pig) ileum assessed as inhibition of histamine-induced spasms incubated at 10 '-2 M 2 min prior histamine-challenge
[2] = biological target: Histamine H1 receptor (Cavia porcellus) (UniProt P31389); experiment: Inhibition of H1 receptor in Cavia porcellus Hartley (guinea pig) ileum assessed as inhibition of histamine-induced spasms incubated at 10 '-3 M 2 min prior histamine-challenge
[3] = biological target: Histamine H1 receptor (Cavia porcellus) (UniProt P31389); experiment: Inhibition of H1 receptor in Cavia porcellus Hartley (guinea pig) ileum assessed as inhibition of histamine-induced spasms incubated at 10 '-5 M 2 min prior histamine-challenge
[4] = biological target: Histamine H1 receptor (Cavia porcellus) (UniProt P31389); experiment: Inhibition of H1 receptor in Cavia porcellus Hartley (guinea pig) ileum assessed as inhibition of histamine-induced spasms incubated at 10 '-6 M 2 min prior histamine-challenge
Histamine H1 receptor = Histamine H1 receptor (Cavia porcellus, UniProt P31389); experiment: Inhibition of H1 receptor in Cavia porcellus Hartley (guinea pig) ileum assessed as inhibition of histamine-induced spasms incubated 2 min prior histamine-challenge
[5] = biological target: Histamine H1 receptor (Cavia porcellus) (UniProt P31389); experiment: Inhibition of H1 receptor in Cavia porcellus Hartley (guinea pig) ileum assessed as inhibition of histamine-induced spasms incubated at 10 '-4 M 2 min prior histamine-challenge
[6] = biological target: Histamine H1 receptor (Cavia porcellus) (UniProt P31389); experiment: Inhibition of H1 receptor in Cavia porcellus Hartley (guinea pig) ileum assessed as inhibition of histamine-induced spasms incubated 2 min prior histamine-challenge relative to acrivastine

Histamine H1 receptor (Cavia porcellus), sequence (P31389 whole entry): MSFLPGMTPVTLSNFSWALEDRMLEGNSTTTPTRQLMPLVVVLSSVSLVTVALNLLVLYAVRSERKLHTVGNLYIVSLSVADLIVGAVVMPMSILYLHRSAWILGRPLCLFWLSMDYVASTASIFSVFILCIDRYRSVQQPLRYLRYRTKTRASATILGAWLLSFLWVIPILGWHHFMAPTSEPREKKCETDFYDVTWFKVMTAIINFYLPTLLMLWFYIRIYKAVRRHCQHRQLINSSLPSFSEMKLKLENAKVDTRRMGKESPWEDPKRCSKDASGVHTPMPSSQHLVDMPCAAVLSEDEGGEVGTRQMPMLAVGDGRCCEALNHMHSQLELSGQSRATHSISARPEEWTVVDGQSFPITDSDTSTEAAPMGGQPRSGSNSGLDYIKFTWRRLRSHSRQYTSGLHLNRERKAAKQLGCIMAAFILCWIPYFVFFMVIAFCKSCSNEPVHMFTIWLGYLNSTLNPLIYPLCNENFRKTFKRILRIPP
Histamine H1 receptor, sequence (P31389 whole entry): as above

Work on `Cc1ccc(/C(=C\CN2CCCC2)c2cccc(/C=C/C(=O)O)n2)cc1` [ACRIVASTINE] yielded an inhibition [1] of 100%, an inhibition [2] of 100% and an inhibition [3] of 60%. It also gave an inhibition [4] of 16.6%, an IC50 (Histamine H1 receptor) of 6.12 µM and an inhibition [5] of 100%. For the same molecule, the Emax [6] was 100%.
In the case of `CCOC(=O)N1CCN(C=C2C(=O)NC(=O)NC2=O)CC1`, the inhibition [1] is reported as 25%, the inhibition [2] is reported as 25% and the inhibition [3] is reported as 9%. It also gave an inhibition [4] of 8%, an inhibition [5] of 25% and an Emax [6] of 25%.
Work on `OCCN(Cc1nc2ccccc2[nH]1)c1nc2ccccc2[nH]1` yielded an inhibition [1] of 65.5%, an inhibition [2] of 60% and an inhibition [3] of 10.5%. For the same molecule, the inhibition [4] was 0%, the inhibition [5] was 11% and the Emax [6] was 11%.
Molecule `CC(C)(CO)N1C(=O)c2ccccc2C1=O` has an inhibition [1] of 0%, an inhibition [2] of 0% and an inhibition [3] of 0%. For the same molecule, the inhibition [4] was 0%, the inhibition [5] was 0% and the Emax [6] was 0%.
Work on `CC(CO)(CO)NCc1nc2ccccc2[nH]1` yielded an inhibition [1] of 85.7%, an inhibition [2] of 50% and an inhibition [3] of 11.2%. It also gave an inhibition [4] of 0%, an inhibition [5] of 14.2% and an Emax [6] of 14.2%.
For `CC(C)(CO)NC=C1C(=O)NC(=O)NC1=O`, the inhibition [1] was 100%, the inhibition [2] was 85.5% and the inhibition [3] was 40%. For the same molecule, the inhibition [4] was 16.7%, the IC50 (Histamine H1 receptor) was 6.15 µM and the inhibition [5] was 65%. The Emax [6] was 65%.
Work on `O=C1NC(=O)C(=CNC2CCCCC2)C(=O)N1` yielded an inhibition [1] of 100%, an inhibition [2] of 100% and an inhibition [3] of 55.3%. For the same molecule, the inhibition [4] was 20%, the IC50 (Histamine H1 receptor) was 7 µM and the inhibition [5] was 100%. It also gave an Emax [6] of 100%.
Work on `CC(CO)(CO)Nc1nc2ccccc2[nH]1` yielded an inhibition [1] of 100%, an inhibition [2] of 69% and an inhibition [3] of 29.6%. For the same molecule, the inhibition [4] was 7.16%, the IC50 (Histamine H1 receptor) was 28.9 µM and the inhibition [5] was 55%. It also gave an Emax [6] of 55%.
`O=C1c2ccccc2C(=O)N1CC(O)CNC1CCCCC1` (racemic) showed an inhibition [1] of 78.3%, an inhibition [2] of 66% and an inhibition [3] of 33.3%. For the same molecule, the inhibition [4] was 12.9%, the inhibition [5] was 37.5% and the Emax [6] was 37.5%.
`CC(C)(CO)NCC(C)(C)N1C(=O)c2ccccc2C1=O` showed an inhibition [1] of 100%, an inhibition [2] of 62.9% and an inhibition [3] of 0%. For the same molecule, the inhibition [4] was 0%, the inhibition [5] was 20% and the Emax [6] was 20%.
In the case of `CC(CO)(CO)NCCCN1C(=O)c2ccccc2C1=O`, the inhibition [1] is reported as 100%, the inhibition [2] is reported as 69.2% and the inhibition [3] is reported as 28.4%. It also gave an inhibition [4] of 5.45%, an IC50 (Histamine H1 receptor) of 80.2 µM and an inhibition [5] of 54%. For the same molecule, the Emax [6] was 54%.
`O=C1NC(=O)C(=CN2CCOCC2)C(=O)N1` gave an inhibition [1] of 100%, an inhibition [2] of 100% and an inhibition [3] of 57.3%. It also gave an inhibition [4] of 12.8%, an IC50 (Histamine H1 receptor) of 86.8 µM and an inhibition [5] of 100%. The Emax [6] was 100%.
In the case of `CC(C)CNCC(C)(C)N1C(=O)c2ccccc2C1=O`, the inhibition [1] is reported as 22%, the inhibition [2] is reported as 20% and the inhibition [3] is reported as 16%. It also gave an inhibition [4] of 14%, an inhibition [5] of 18% and an Emax [6] of 18%.

From ChEMBL document CHEMBL3046530, “Novel potential nonsedating H1 antagonists related to the gauche rotamer of PROS-NH-histamine” (Med Chem Res, 2009)
